target: hcGAS (Homo sapiens, UniProt Q8N884); test: hcGAS LCMS assay (direct measurement of cGAMP production by LC/MS); assay type: biochemical; details: 4 h incubation with enzyme and substrates; cGAMP production by LC/MS; class symbols; read-out: hcGAS LCMS IC50
Experimental: cGAS catalyzes the cyclization of ATP and GTP to produce cGAMP, which is the activating ligand of STING. Human cGAS (hcGAS) inhibition can thus be quantified by measuring how much cGAMP is formed either indirectly, by monitoring ATP-depletion as in the hcGAS Kinase-Glo assay (as described below), or directly, such as using the hcGAS LCMS assay (as described below).
2. hGAS LCMS Assay Conditions
Compounds were tested for their hcGAS inhibition activity using direct measurement of cGAMP production by LC/MS. Briefly, compounds were incubated with enzyme and substrates for 4 hours (see Table C), before the reaction was stopped with 3 volumes of 70/30 Acetonitrile/H2O mix containing 0.15 uM cGAMP-^13C10^15N5 as internal standard and mixed for 5 mmn. After centrifugation (3700 rpm, […], […]), 100 uL of each reaction was collected and mixed to equal volume of acetonitrile (MeCN). Samples were then analyzed on Qexactive (Column: XBridge BEH Amide Column, 130 Å, 3.5 μm, 3 mm×50 mm. Mobile phase A: 10 mM Ammonium acetate in 95/5 H2O/MeCN (0.5% DMSO), Mobile phase B: MeCN (0.5% DMSO).
The results of the assay, expressed as IC50 values, are reported in Table D with the following designations: A represents an IC50 value <0.005 μM (with A1 representing an IC50 value <0.0005 μM, A2 representing an IC50 value ≥0.0005 μM and <0.001 μM, and A3 representing an IC50 value ≥0.001 μM and <0.005 μM); B represents an IC50 value ≥0.005 μM and <0.02 μM; C represents an IC50 value ≥0.02 μM and <0.06 μM; and D represents an IC50 value ≥0.06 μM.

hcGAS, sequence (Q8N884 whole entry): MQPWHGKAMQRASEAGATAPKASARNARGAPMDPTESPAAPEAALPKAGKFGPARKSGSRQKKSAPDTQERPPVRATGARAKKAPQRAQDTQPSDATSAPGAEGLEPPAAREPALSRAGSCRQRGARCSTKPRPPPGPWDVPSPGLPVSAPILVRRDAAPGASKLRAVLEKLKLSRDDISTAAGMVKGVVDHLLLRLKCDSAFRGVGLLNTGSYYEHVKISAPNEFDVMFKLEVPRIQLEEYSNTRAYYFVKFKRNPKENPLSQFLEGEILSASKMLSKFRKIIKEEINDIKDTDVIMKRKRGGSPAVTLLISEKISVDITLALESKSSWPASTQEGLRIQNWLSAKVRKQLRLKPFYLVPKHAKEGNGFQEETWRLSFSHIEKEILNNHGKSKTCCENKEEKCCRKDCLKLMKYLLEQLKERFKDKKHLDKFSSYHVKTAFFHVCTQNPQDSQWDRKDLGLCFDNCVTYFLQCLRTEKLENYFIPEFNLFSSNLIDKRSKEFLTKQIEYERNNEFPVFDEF

SMILES	IC50 [nM]
COc1cccc(OC)c1-c1cc(C(=O)Nc2nnc(-n3nccc3N)s2)oc(=O)c1OC[C@@H]1CCCO1 [56A*, (S)-N-(5-(5-amino-1H-pyrazol-1-yl)-1,3,4-thiadiazol-2-yl)-4-(2,6-dimethoxyphenyl)-2-oxo-3-((tetrahydrofuran-2-yl)methoxy)-2H-pyran-6-carboxamide]	0.5 to 1
COCCOc1c(-c2ncccc2C#N)cc(C(=O)Nc2nnc(-n3nccc3N)s2)oc1=O [Compound 9, N-(5-(5-amino-1H-pyrazol-1-yl)-1,3,4-thiadiazol-2-yl)-4-(3-cyanopyridin-2-yl)-3-(2-methoxyethoxy)-2-oxo-2H-pyran-6-carboxamide]	0.5 to 1
COCCOc1c(-c2c(C)cccc2C#N)cc(C(=O)Nc2nnc(-n3nccc3N)s2)oc1=O (single isomer, unassigned) [Compound 24B*, (Sa)-N-(5-(5-amino-1H-pyrazol-1-yl)-1,3,4-thiadiazol-2-yl)-4-(2-cyano-6-methylphenyl)-3-(2-methoxyethoxy)-2-oxo-2H-pyran-6-carboxamide]	< 0.5
COc1cccnc1-c1cc(C(=O)Nc2nnc(-n3nccc3N)s2)oc(=O)c1O[C@@H]1CCC[C@H](OC)C1 (single isomer, unassigned) [113D*]	5 to 20
COc1cccc(OC)c1-c1cc(C(=O)Nc2nnc(-n3nccc3N)s2)oc(=O)c1OCC(O)CN1CCSCC1 (centres unmarked) [91A*/91B*]	0.5 to 1
COc1cccc(OC)c1-c1cc(C(=O)Nc2nnc(-n3nccc3N)s2)oc(=O)c1O[C@@H]1CCC[C@@H](O)C1 (single isomer, unassigned) [109A*]	1 to 5
COc1cccc(OC)c1-c1cc(C(=O)Nc2nnc(-n3nccc3N)s2)oc(=O)c1OCCCO [Compound 40, N-(5-(5-amino-1H-pyrazol-1-yl)-1,3,4-thiadiazol-2-yl)-4-(2,6-dimethoxyphenyl)-3-(3-hydroxypropoxy)-2-oxo-2H-pyran-6-carboxamide]	0.5 to 1
COCCOc1cccc(OC)c1-c1cc(C(=O)Nc2nnc(-n3nccc3N)s2)oc(=O)c1OCCOC [Compound 27, N-(5-(5-amino-1H-pyrazol-1-yl)-1,3,4-thiadiazol-2-yl)-4-(2-methoxy-6-(2-methoxyethoxy)phenyl)-3-(2-methoxyethoxy)-2-oxo-2H-pyran-6-carboxamide]	1 to 5
COc1cccnc1-c1cc(C(=O)Nc2nnc(-n3nccc3N)s2)oc(=O)c1O[C@H]1CC[C@@H](O)C1 (single isomer, unassigned) [111B*]	0.5 to 1
COc1cccnc1-c1cc(C(=O)Nc2nnc(-n3nccc3N)s2)oc(=O)c1O[C@@H]1CCC[C@@H](OC)C1 (single isomer, unassigned) [113A*]	1 to 5
COc1cccc(OC)c1-c1cc(C(=O)Nc2nnc(-n3nccc3N)s2)oc(=O)c1O[C@@H]1CCCC[C@H]1O (single isomer, unassigned) [110A*]	1 to 5
COc1cccnc1-c1cc(C(=O)Nc2nnc(-n3nccc3N)s2)oc(=O)c1O[C@H]1CC[C@H](O)C1 (single isomer, unassigned) [112B*]	1 to 5
COc1cccc(OC)c1-c1cc(C(=O)Nc2nnc(-n3nccc3N)s2)oc(=O)c1OCC(CO)N1CCOCC1 (racemic) [Rac-85, N-(5-(5-amino-1H-pyrazol-1-yl)-1,3,4-thiadiazol-2-yl)-4-(2,6-dimethoxyphenyl)-3-(3-hydroxy-2-morpholinopropoxy)-2-oxo-2H-pyran-6-carboxamide]	1 to 5
COc1cccc(OC)c1-c1cc(C(=O)Nc2nnc(-n3nccc3N)s2)oc(=O)c1OCCN1CCSCC1 [Compound 44, N-(5-(5-amino-1H-pyrazol-1-yl)-1,3,4-thiadiazol-2-yl)-4-(2,6-dimethoxyphenyl)-2-oxo-3-(2-thiomorpholinoethoxy)-2H-pyran-6-carboxamide]	< 0.5
COCCOc1c(-c2c(C#N)cccc2C#N)cc(C(=O)Nc2nnc(-n3nccc3N)s2)oc1=O [Compound 12, N-(5-(5-amino-1H-pyrazol-1-yl)-1,3,4-thiadiazol-2-yl)-4-(2,6-dicyanophenyl)-3-(2-methoxyethoxy)-2-oxo-2H-pyran-6-carboxamide]	0.5 to 1

same assay, conditions: compared with Compound 1, from activity classes of Table D

SMILES	cGAS potency relative to Compound 1
COc1cccc(OC)c1-c1cc(C(=O)Nc2nnc(-n3nccc3N)s2)oc(=O)c1OCCN1CCSCC1 [Compound 44, N-(5-(5-amino-1H-pyrazol-1-yl)-1,3,4-thiadiazol-2-yl)-4-(2,6-dimethoxyphenyl)-2-oxo-3-(2-thiomorpholinoethoxy)-2H-pyran-6-carboxamide]	improved cGAS potency

same assay, conditions: hcGAS 0.5 nM; ATP 100 μM; GTP 100 μM; dsDNA 25 nM; pH 7.4; 4 h incubation; read-out: hcGAS inhibition IC50 (activity class, Table D)

SMILES	IC50 [nM]
COc1cccc(OC)c1-c1cc(C(=O)Nc2nnc(-n3nccc3N)s2)oc(=O)c1OCCN1CCSCC1 [Compound 44, N-(5-(5-amino-1H-pyrazol-1-yl)-1,3,4-thiadiazol-2-yl)-4-(2,6-dimethoxyphenyl)-2-oxo-3-(2-thiomorpholinoethoxy)-2H-pyran-6-carboxamide]	< 0.5

From US20260327221A1, “INHIBITORS OF CYCLIC GMP-AMP SYNTHASE AND USES THEREOF” (Ventus Therapeutics U.S., Inc., priority 2023, published 2026)
